Measurements as given in publication PMC11492828 (RSC Advances, 2024).
Like-named read-outs stand apart in the source and are kept apart here. Each block holds one compound with its values, some of them ahead of it.

Legend:
[1] = system: human neuroblastoma (SH-SY5Y) cells; experiment: Cytotoxicity/cell viability MTT assay; type: cell-based; conditions: for Nature in cytotoxicity study: MTT
PPAR-γ = target: T1, PPAR-γ (Homo sapiens, UniProt P37231); experiment: PPAR-γ transactivation assay; type: cell-based; conditions: SH-SY5Y cells, 1–16 μM
T1 sequence (P37231 1-505): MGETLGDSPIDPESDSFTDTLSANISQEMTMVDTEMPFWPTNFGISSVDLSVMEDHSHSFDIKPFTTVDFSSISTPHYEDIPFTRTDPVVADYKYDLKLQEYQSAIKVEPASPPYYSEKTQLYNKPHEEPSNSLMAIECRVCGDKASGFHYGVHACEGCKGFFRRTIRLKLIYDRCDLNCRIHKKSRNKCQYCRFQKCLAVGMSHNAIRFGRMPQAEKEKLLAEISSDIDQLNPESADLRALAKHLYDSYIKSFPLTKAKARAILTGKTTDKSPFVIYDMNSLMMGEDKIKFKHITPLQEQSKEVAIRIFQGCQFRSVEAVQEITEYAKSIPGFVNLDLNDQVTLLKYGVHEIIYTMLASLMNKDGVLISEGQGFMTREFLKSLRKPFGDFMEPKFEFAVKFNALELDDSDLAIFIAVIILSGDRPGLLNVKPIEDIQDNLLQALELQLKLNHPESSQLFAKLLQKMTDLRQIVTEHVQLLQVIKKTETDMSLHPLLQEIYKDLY

[2] = system: Aβ-induced SH-SY5Y cell line; experiment: Anti-inflammatory and anti-oxidant activity in the Aβ-induced SH-SY5Y cell line; type: cell-based, human; conditions: 2.5 to 40 μM, vs pioglitazone
ROS = experiment: Flow cytometric analysis of ROS in Aβ-induced SH-SY5Y cells; type: cell-based, human
IL-1β = experiment: Flow cytometric analysis of IL-1β expression in Aβ-induced SH-SY5Y cells; type: cell-based, human
TNF-α = experiment: Flow cytometric analysis of TNF-α expression in Aβ-induced SH-SY5Y cells; type: cell-based, human
IL-6 = experiment: Flow cytometric analysis of IL-6 expression in Aβ-induced SH-SY5Y cells; type: cell-based, human
[3] = Homo sapiens, SH-SY5Y, read-out: IC50 MTT assay, SH-SY5Y cells
[4] = read-out: IC50 MTT assay, SH-SY5Y cells

- PPAR-γ transcriptional activity (PPAR-γ): dose-dependent enhancement
Structure (SMILES): COc1cc(/C=C/C(C)=N/O)ccc1OCC(=O)Nc1ccc(Cl)cc1 [Compound 4a, N-(4-Chlorophenyl)-2-(4-((1E,3E)-3-(hydroxyimino)but-1-en-1-yl)-2methoxyphenoxy)acetamide]
- IC50 [1, 3]: 108 µM
- Nature in cytotoxicity study ([1]; SH-SY5Y cells): cell proliferative and non-cytotoxic
- IC50 [1, 4]: > 100 µM
- Anti-inflammatory and anti-oxidant activity (expression of pro-inflammatory cytokines and ROS) [2]: promising anti-inflammatory activity and anti-oxidant activity

Structure (SMILES): COc1cc(/C=C/C(C)=N/O)ccc1OCC(=O)Nc1ccccc1 [Compound 4c, 2-(4-((1E,3E)-3-(Hydroxyimino)but-1-en-1-yl)-2-methoxyphenoxy)-N-phenylacetamide]
- IC50 [1, 3]: 50.7 µM
- Nature in cytotoxicity study ([1]; SH-SY5Y cells): cytotoxic

- PPAR-γ transcriptional activity (PPAR-γ): dose-dependent enhancement
Structure (SMILES): COc1cc(/C=C/C(C)=N/O)ccc1OCC(=O)Nc1cccc(C)c1 [Compound 4h, 2-(4-((1E,3E)-3-(Hydroxyimino)but-1-en-1-yl)-2-methoxyphenoxy)-N-(m-tolyl)acetamide]
- IC50 [1, 3]: 150 µM
- Nature in cytotoxicity study ([1]; SH-SY5Y cells): cell proliferative and non-cytotoxic
- IC50 [1, 4]: > 100 µM
- Anti-inflammatory and anti-oxidant activity (expression of pro-inflammatory cytokines and ROS) [2]: promising anti-inflammatory activity and anti-oxidant activity

Structure (SMILES): COc1cc(/C=C/C(C)=N/O)ccc1OCC(=O)Nc1ccc(C)cc1 [Compound 4b, 2-(4-((1E,3E)-3-(Hydroxyimino)but-1-en-1-yl)-2-methoxyphenoxy)-N-(p-tolyl)acetamide]
- IC50 [1, 3]: 112 µM
- Nature in cytotoxicity study ([1]; SH-SY5Y cells): cell proliferative and non-cytotoxic

Structure (SMILES): CC(/C=C/c1ccc(OCC(=O)Nc2ccccc2)cc1)=N\O [Compound 4i, 2-(4-((1E,3E)-3-(Hydroxyimino)but-1-en-1-yl)phenoxy)-N-phenylacetamide]
- IC50 [1, 3]: 82.3 µM
- Nature in cytotoxicity study ([1]; SH-SY5Y cells): cytotoxic

Structure (SMILES): CCc1ccc(CCOc2ccc(CC3SC(=O)NC3=O)cc2)nc1 (stereo not shown) [Pioglitazone, pioglitazone]
- ROS% cell expression (ROS; Aβ 10 μM + 2.5 μM compound): 60.98%
- ROS% cell expression (ROS; Aβ 10 μM + 5 μM compound): 53.96%
- ROS% cell expression (ROS; Aβ 10 μM + 10 μM compound): 41.78%
- ROS% cell expression (ROS; Aβ 10 μM + 20 μM compound): 21.01%
- ROS% cell expression (ROS; Aβ 10 μM + 40 μM compound): 9.07%
- IL-1β% cell expression (IL-1β; Aβ 10 μM + 2.5 μM compound): 70.21%
- IL-1β% cell expression (IL-1β; Aβ 10 μM + 5 μM compound): 52.38%
- IL-1β% cell expression (IL-1β; Aβ 10 μM + 10 μM compound): 32.36%
- IL-1β% cell expression (IL-1β; Aβ 10 μM + 20 μM compound): 15.15%
- IL-1β% cell expression (IL-1β; Aβ 10 μM + 40 μM compound): 10.76%
- TNF-α% cell expression (TNF-α; Aβ 10 μM + 2.5 μM compound): 67.8%
- TNF-α% cell expression (TNF-α; Aβ 10 μM + 5 μM compound): 53.92%
- TNF-α% cell expression (TNF-α; Aβ 10 μM + 10 μM compound): 24.85%
- TNF-α% cell expression (TNF-α; Aβ 10 μM + 20 μM compound): 9.8%
- TNF-α% cell expression (TNF-α; Aβ 10 μM + 40 μM compound): 5.5%
- IL-6% cell expression (IL-6; Aβ 10 μM + 2.5 μM compound): 42.95%
- IL-6% cell expression (IL-6; Aβ 10 μM + 5 μM compound): 30.23%
- IL-6% cell expression (IL-6; Aβ 10 μM + 10 μM compound): 15.09%
- IL-6% cell expression (IL-6; Aβ 10 μM + 20 μM compound): 9.51%
- IL-6% cell expression (IL-6; Aβ 10 μM + 40 μM compound): 12.31%

Structure (SMILES): COc1cc(/C=C/C(C)=N/O)ccc1OCC(=O)Nc1ccccc1C [Compound 4e, 2-(4-((1E,3E)-3-(Hydroxyimino)but-1-en-1-yl)-2-methoxyphenoxy)-N-(o-tolyl)acetamide]
- IC50 [1, 3]: 79.7 µM
- Nature in cytotoxicity study ([1]; SH-SY5Y cells): cytotoxic

Structure (SMILES): CC(/C=C/c1ccc(OCC(=O)Nc2ccccc2F)cc1)=N\O [Compound 4f, N-(2-Fluorophenyl)-2-(4-((1E,3E)-3-(hydroxyimino)but-1-en-1-yl)phenoxy)acetamide]
- IC50 [1, 3]: 66.7 µM
- Nature in cytotoxicity study ([1]; SH-SY5Y cells): cytotoxic
